Counter-ions that a name gives are not always drawn. Like-named read-outs stand apart in the source and are kept apart here.
Key:
Assay type in all cases: cell-based
HT29 = assay: Cytotoxicity of spisulosine analogs, HT29 (after Berjeron et al); settings: methodology after Berjeron et al, NA=not active, read-out: Cytotoxicity IC50 HT29
A549 = assay: Cytotoxicity of spisulosine analogs, A549 (after Berjeron et al); settings: methodology after Berjeron et al, NA=not active, read-out: Cytotoxicity IC50 A549
DU145 = assay: Cytotoxicity of spisulosine analogs, DU145 (after Berjeron et al); settings: methodology after Berjeron et al, NA=not active, read-out: Cytotoxicity IC50 DU145
P388 = assay: Cytotoxicity of spisulosine analogs, P388 (after Berjeron et al); settings: methodology after Berjeron et al, NA=not active, read-out: Cytotoxicity IC50 P388
MEL28 = assay: Cytotoxicity of spisulosine analogs, MEL28 (after Berjeron et al); settings: methodology after Berjeron et al, NA=not active, read-out: Cytotoxicity IC50 MEL28

CCCCCCCCCCCCCC[C@@H](O)[C@@H](N)CC [drawing 57, (3s,4R)-3-Amino-4-octadecanol hydrocloride]
IC50 (HT29; HT29): 15.5 nM
IC50 (A549; A549): 15.5 nM

CCCCCCCCCCCCCCC[C@@H](O)[C@@H](N)CC [drawing 59, (3S,4R)-3-Amino-4-nonadecanol hydrochloride]
IC50 (HT29; HT29, hydrochloride): 2.98 nM
IC50 (A549; A549, hydrochloride): 2.98 nM

CCCCCCCCCCCCCC[C@@H](O)[C@H](C)N [drawing 45, (2S,3R)-2-Amino-3-heptadecanol hydrochloride]
IC50 (HT29; HT29, hydrochloride): 32.5 nM
IC50 (A549; A549, hydrochloride): 32.5 nM

CCCCCCCCCCCCCCCC(=NO)C(C)N (stereo not shown)
IC50 (HT29; HT29): 335 nM
IC50 (DU145; DU145): 335 nM
IC50 (P388; P388): 335 nM
IC50 (A549; A549): 335 nM
IC50 (MEL28; MEL28): 335 nM

CCCCCCCCCCCCCCCCC[C@@H](O)[C@H](C)N [drawing 51, (2S,3R)-2-Amino-3-eicosanol hydrochloride]
IC50 (HT29; HT29, hydrochloride): 14.3 nM
IC50 (A549; A549, hydrochloride): 14.3 nM

CCCCCCCCCCCCCCC[C@@H](O)[C@@H](N)Cc1ccc(O)cc1 [drawing 70, (2S,3R)-2-Amino-1-(4′-hydroxyphenyl)-3-octadecanol hydrochloride]
IC50 (HT29; HT29, hydrochloride): 242 nM
IC50 (A549; A549, hydrochloride): 242 nM

CCCCCCCCCCCCCCCC(=O)[C@@H](C)N
IC50 (HT29; HT29): 156 nM
IC50 (DU145; DU145): 156 nM
IC50 (P388; P388): 156 nM
IC50 (A549; A549): 156 nM
IC50 (MEL28; MEL28): 313 nM

CCCCCCCCCCCCCCC[C@H](O)[C@@H](C)N [(2R,3S)-2-Amino-3-octadecanol]
IC50 (HT29; Homo sapiens, HT-29, HT29): 350 nM
IC50 (DU145; Homo sapiens, DU-145, DU145): 350 nM
IC50 (P388; Mus musculus, P388, P388): 350 nM
IC50 (A549; Homo sapiens, A549, A549): 350 nM
IC50 (MEL28; Homo sapiens, SK-MEL-28, MEL28): 350 nM

CCCCCCCCCCCCCCCCCC(=O)[C@H](C)N [drawing 105]
IC50 (HT29; HT29): 144 nM
IC50 (DU145; DU145): 144 nM
IC50 (P388; P388): 144 nM
IC50 (A549; A549): 144 nM
IC50 (MEL28; MEL28): 287 nM

CCCCCCCCCCCCCCCCC[C@@H](O)[C@@H](N)CC [drawing 62, (3S,4R)-3-Amino-4-heneicosanol]
IC50 (HT29; Homo sapiens, HT-29, HT29): 30.5 nM
IC50 (A549; Homo sapiens, A549, A549): 30.5 nM

CCCCCCCCCCCCCCC[C@H](Cl)[C@H](C)N [(2S,3S)-2-Amino-3-chloro-octadecane]
IC50 (HT29; Homo sapiens, HT-29, HT29): 329 nM
IC50 (DU145; Homo sapiens, DU-145, DU145): 329 nM
IC50 (P388; Mus musculus, P388, P388): 329 nM
IC50 (A549; Homo sapiens, A549, A549): 329 nM
IC50 (MEL28; Homo sapiens, SK-MEL-28, MEL28): 329 nM

CCCCCCCCCCCCCCC[C@@H](O)[C@H](C)N(C)C
IC50 (HT29; HT29): 319 nM
IC50 (DU145; DU145): 319 nM
IC50 (P388; P388): 319 nM
IC50 (A549; A549): 319 nM
IC50 (MEL28; MEL28): 319 nM

CCCCCCCCCCCCCCC[C@@H](O)[C@@H](N)CCC [drawing 64, (4S,5R)-4-Amino-5-eicosanol]
IC50 (HT29; HT29): 159 nM
IC50 (A549; A549): 159 nM

CCCCCCCCCCCCCCC[C@@H](O)[C@@H](N)CC [drawing 58, (3S,4R)-3-Amino-4-nonadecanol]
IC50 (HT29; HT29): 33.4 nM
IC50 (DU145; Homo sapiens, DU-145, DU145): 33.4 nM
IC50 (P388; Mus musculus, P388, P388): 33.4 nM
IC50 (A549; A549): 33.4 nM
IC50 (MEL28; Homo sapiens, SK-MEL-28, MEL28): 334 nM

CCCCCCCCCCCCCCCCCCC[C@@H](O)[C@H](C)N [(2S,3R)-2-Amino-3-docosanol]
IC50 (HT29; Homo sapiens, HT-29, HT29): 1460 nM
IC50 (DU145; Homo sapiens, DU-145, DU145): 1460 nM
IC50 (P388; Mus musculus, P388, P388): 293 nM

CCCCCCCCCCCCCCC[C@@H](N)[C@H](C)N
IC50 (HT29; HT29): 1400 nM
IC50 (A549; A549): 1400 nM

CCCCCCCCCCCCCCC[C@@H](O)[C@@H](N)CCCN [drawing 71, (4S,5R)-1,4-Diamino-5-eicosanol]
IC50 (HT29; Homo sapiens, HT-29, HT29): 1520 nM
IC50 (A549; Homo sapiens, A549, A549): 1520 nM

CCCCCCCCCCCCCCCC[C@@H](O)[C@@H](N)CC [drawing 60, (3S,4R)-3-Amino-4-eicosanol]
IC50 (HT29; HT29): 319 nM
IC50 (A549; A549): 319 nM

CCCCCCCCCCCCCCC[C@@H](O)[C@H](C)N [drawing 46, Bis-((2S,3R)-2-ammonium-3-octadecanol) L-tartrate]
IC50 (HT29; Homo sapiens, HT-29, HT29): 27.7 nM
IC50 (DU145; Homo sapiens, DU-145, DU145): 27.7 nM
IC50 (P388; Mus musculus, P388, P388): 27.7 nM
IC50 (A549; Homo sapiens, A549, A549): 27.7 nM
IC50 (MEL28; MEL28): 27.7 nM

CCCCCCCCCCCCCCCC(=O)[C@@H](N)CC [drawing 106]
IC50 (HT29; HT29): 29.9 nM
IC50 (DU145; DU145): 29.9 nM
IC50 (P388; P388): 29.9 nM
IC50 (A549; A549): 29.9 nM
IC50 (MEL28; MEL28): 299 nM

CCCCCCCCCCCCCCCC[C@@H](O)[C@H](C)N [drawing 49, (2S,3R)-2-Amino-3-nonadecanol hydrochloride]
IC50 (HT29; Homo sapiens, HT-29, HT29): 29.8 nM
IC50 (A549; Homo sapiens, A549, A549): 29.8 nM

CCCCCCCCCCCCCCCC[C@@H](O)[C@H](C)N [drawing 37, (2S,3R)-2-Amino-3-nonadecanol]
IC50 (HT29; HT29): 33.4 nM
IC50 (DU145; Homo sapiens, DU-145, DU145): 33.4 nM
IC50 (P388; Mus musculus, P388, P388): 33.4 nM
IC50 (A549; A549): 33.4 nM
IC50 (MEL28; Homo sapiens, SK-MEL-28, MEL28): 33.4 nM

CCCCCCCCCCCCCCCCC[C@@H](O)[C@H](C)N [drawing 38, (2S,3R)-2-Amino-3-eicosanol]
IC50 (HT29; HT29): 31.9 nM
IC50 (DU145; Homo sapiens, DU-145, DU145): 31.9 nM
IC50 (P388; Mus musculus, P388, P388): 31.9 nM
IC50 (A549; A549): 31.9 nM
IC50 (MEL28; Homo sapiens, SK-MEL-28, MEL28): 319 nM

CCCCCCCCCCCCCCCCC(=O)[C@H](C)N [drawing 104]
IC50 (HT29; HT29): 150 nM
IC50 (DU145; DU145): 150 nM
IC50 (P388; P388): 150 nM
IC50 (A549; A549): 150 nM
IC50 (MEL28; MEL28): 299 nM

CCCCCCCCCCCCCC[C@@H](O)[C@H](C)N [drawing 44, (2S,3R)-2-Amino-3-heptadecanol]
IC50 (HT29; Homo sapiens, HT-29, HT29): 36.8 nM
IC50 (DU145; Homo sapiens, DU-145, DU145): 36.8 nM
IC50 (P388; Mus musculus, P388, P388): 36.8 nM
IC50 (A549; Homo sapiens, A549, A549): 36.8 nM
IC50 (MEL28; Homo sapiens, SK-MEL-28, MEL28): 36.8 nM

CCCCCCCCCCCCCCC[C@@H](O)[C@@H](N)Cc1ccc(O)cc1 [drawing 69, (2S,3R)-2-Amino-1-(4′-hydroxyphenyl)-3-octadecanol]
IC50 (HT29; HT29): 1320 nM
IC50 (A549; A549): 1320 nM

CCCCCCCCCCCCCCCC[C@@H](O)[C@@H](N)CC [drawing 61, (3S,4R)-3-Amino-4-eicosanol hydrochloride]
IC50 (HT29; HT29, hydrochloride): 28.6 nM
IC50 (A549; A549, hydrochloride): 28.6 nM

CCCCCCCCCCCCCCCC[C@@H](O)[C@H](C)NS(C)(=O)=O
IC50 (HT29; HT29): 265 nM
IC50 (A549; A549): 265 nM

CCCCCCCCCCCCCCC[C@@H](O)[C@@H](N)CCC [drawing 65, (4S,5R)-4-Amino-5-eicosanol hydrochloride]
IC50 (HT29; HT29, hydrochloride): 28.6 nM
IC50 (A549; A549, hydrochloride): 28.6 nM

CCCCCCCCCCCCCCCCCCCC[C@@H](O)[C@H](C)N [(2S,3R)-2-Amino-3-tricosanol]
IC50 (HT29; Homo sapiens, HT-29, HT29): 2810 nM
IC50 (DU145; Homo sapiens, DU-145, DU145): 2810 nM
IC50 (P388; Mus musculus, P388, P388): 1410 nM

CCCCCCCCCCCCCCC[C@@H](O)[C@@H](N)CCCN [drawing 72, (4S,5R)-1,4-Diamino-5-eicosanol dihydrochloride]
IC50 (HT29; HT29, dihydrochloride): 1240 nM
IC50 (A549; A549, dihydrochloride): 1240 nM

CCCCCCCCCCCCCCC[C@H](N)[C@H](C)N
IC50 (HT29; HT29): 280 nM
IC50 (A549; A549): 280 nM

CCCCCCCCCCCCCCCCC[C@@H](O)[C@@H](N)CC [drawing 63, (3S,4R)-3-Amino-4-heneicosanol hydrochloride]
IC50 (HT29; HT29, hydrochloride): 27.5 nM
IC50 (A549; A549, hydrochloride): 27.5 nM

CCCCCCCCCCCCC/C=C/[C@@H](O)[C@@H](N)CF
IC50 (HT29; Homo sapiens, HT-29, HT29): 33.2 nM
IC50 (A549; Homo sapiens, A549, A549): 33.2 nM

CCCCCCCCCCCCCCC[C@@H](OC)[C@H](C)N [(2S,3R)-2-Amino-3-(methoxy)-octadecane]
IC50 (HT29; Homo sapiens, HT-29, HT29): 1670 nM
IC50 (A549; Homo sapiens, A549, A549): 1670 nM

CCCCCCCCCCCCCCCCCC[C@@H](O)[C@H](C)N [drawing 53, (2S,3R)-2-Amino-3-heneicosanol hydrochloride]
IC50 (HT29; HT29, hydrochloride): 27.5 nM
IC50 (A549; A549, hydrochloride): 27.5 nM

CCCCCCCCCCCCCCC[C@@H](O)[C@H](C)NS(C)(=O)=O
IC50 (HT29; HT29): 27.5 nM
IC50 (A549; A549): 27.5 nM

CCCCCCCCCCCCC[C@@H](O)[C@H](C)N [drawing 42, (2S,3R)-2-Amin-3-hexadecanol hydrochloride]
IC50 (HT29; HT29, hydrochloride): 3.4 nM
IC50 (A549; A549, hydrochloride): 3.4 nM

CCCCCCCCCCCCCCC[C@@H](OC(=O)C(F)(F)F)[C@H](C)N
IC50 (HT29; HT29): 20.2 nM
IC50 (A549; A549): 20.2 nM

CCCCCCCCCCCCCC[C@@H](O)[C@@H](N)CC [drawing 56, (3S,4R)-3-Amino-4-octadecanol]
IC50 (HT29; HT29): 3.5 nM
IC50 (A549; A549): 3.5 nM

Source: patent US20040048834A1, “Antitumoral compounds” (priority 2000, published 2004)
